According to patent US20220386606A1, “SPECIFICALLY SUBSTITUTED 3-PHENYL-5-SPIROCYCLOPENTYL-3-PYRROLIN-2-ONES AND THEIR USE AS HERBICIDES” (Bayer Aktiengesellschaft, priority 2019, published 2022):

What was measured:
[1] = system: DIGSA; test: Post-emergence herbicidal action against DIGSA; format: in vivo, Digitaria sanguinalis; details: 80 g/ha, visual assessment about 3 weeks after treatment vs untreated controls
Procedure, shortened: (§1)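 Weeds and crops grown in sandy loam in the greenhouse, treated post-emergence at the one-leaf stage (2–3 weeks after sowing). WP or EC formulations sprayed as aqueous suspension/emulsion at 600–800 l/ha water with 0.2% wetting agent. Visual % activity scored after about 3 weeks versus untreated controls (100% = dead, 0% = like control).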

[2] = system: ECHCG; test: Pre-emergence herbicidal action against ECHCG; format: in vivo, Echinochloa crus-galli; details: 320 g/ha, scored visually after 3 weeks vs untreated controls
Procedure, shortened: (§2)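 Visual percent damage, rated 3 weeks after treatment against untreated plants (0% like control, 100% plants dead). Compounds, as wettable powders or emulsion concentrates, were sprayed pre-emergence onto soil covering seeds sown in sandy loam, at 600 to 800 L/ha water with 0.2% wetting agent; pots kept in greenhouse.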

[3] = system: AMARE; test: Pre-emergence herbicidal action against AMARE; format: in vivo, Amaranthus retroflexus; details: 320 g/ha
Text: (§3) Seeds of monocotyledonous and dicotyledonous weed plants and crop plants are laid out in sandy loam soil in wood-fiber pots and covered with soil. The compounds of the invention, formulated in the form of wettable powders (WP) or as emulsion concentrates (EC), are then applied to the surface of the covering soil as aqueous suspension or emulsion at a water application rate equating to 600 to 800 L/ha with addition of 0.2% wetting agent.
(§4) After the treatment, the pots are placed in a greenhouse and kept under good growth conditions for the trial plants. The damage to the test plants is scored visually after a test period of 3 weeks by comparison with untreated controls (herbicidal activity in percent (%): 100% activity=the plants have died, 0% activity=like control plants).

[4] = system: DIGSA; test: Pre-emergence herbicidal action against DIGSA; format: in vivo, Digitaria sanguinalis; details: 320 g/ha, scored visually after 3 weeks vs untreated controls
Procedure, shortened: as §2

[5] = system: LOLRI; test: Post-emergence herbicidal action against LOLRI; format: in vivo, Lolium rigidum; details: 80 g/ha, visual assessment about 3 weeks after treatment vs untreated controls
Procedure, shortened: as §1

[6] = system: AVEFA; test: Pre-emergence herbicidal action against AVEFA; format: in vivo, Avena fatua; details: 320 g/ha, scored visually after 3 weeks vs untreated controls
Procedure, shortened: as §2

[7] = system: ALOMY; test: Post-emergence herbicidal action against ALOMY; format: in vivo, Alopecurus myosuroides; details: 80 g/ha, visual assessment after about 3 weeks
Procedure, shortened: as §1

[8] = system: SETVI; test: Post-emergence herbicidal action against SETVI; format: in vivo, Setaria viridis; details: 80 g/ha, visual assessment about 3 weeks after treatment vs untreated controls
Procedure, shortened: as §1

[9] = system: ALOMY; test: Pre-emergence herbicidal action against ALOMY; format: in vivo, Alopecurus myosuroides; details: 320 g/ha, scored visually after 3 weeks vs untreated controls
Procedure, shortened: as §2

[10] = system: SETVI; test: Pre-emergence herbicidal action against SETVI; format: in vivo, Setaria viridis; details: 320 g/ha, scored visually after 3 weeks vs untreated controls
Procedure, shortened: as §2

[11] = system: AVEFA; test: Post-emergence herbicidal action against AVEFA; format: in vivo, Avena fatua; details: 80 g/ha, visual assessment after about 3 weeks
Procedure, shortened: as §1

[12] = system: ECHCG; test: Post-emergence herbicidal action against ECHCG; format: in vivo, Echinochloa crus-galli; details: 80 g/ha, visual assessment about 3 weeks after treatment vs untreated controls
Procedure, shortened: as §1

[13] = system: MATIN; test: Pre-emergence herbicidal action against MATIN; format: in vivo; details: 320 g/ha
Text: as §3, §4

[14] = system: LOLRI; test: Pre-emergence herbicidal action against LOLRI (Table 8, titled post-emergence at 320 g/ha); format: in vivo, Lolium rigidum; details: table stands in the pre-emergence section
Procedure, shortened: as §2

[15] = system: VIOTR; test: Pre-emergence herbicidal action against VIOTR; format: in vivo, Viola tricolor; details: 320 g/ha
Procedure, shortened: as §2

[16] = system: VERPE; test: Pre-emergence herbicidal action against VERPE; format: in vivo, Veronica persica; details: 320 g/ha
Text: as §3, §4

Row | Structure (SMILES) | Post-emergence action against DIGSA in % [1] [%] | Pre-emergence action against ECHCG in % [2] [%] | Pre-emergence action against AMARE in % [3] [%] | Pre-emergence action against DIGSA in % [4] [%] | Post-emergence action against LOLRI in % [5] [%] | Pre-emergence action against AVEFA in % [6] [%] | Post-emergence action against ALOMY in % [7] [%] | Post-emergence action against SETVI in % [8] [%] | Pre-emergence action against ALOMY in % [9] [%] | Pre-emergence action against SETVI in % [10] [%] | Post-emergence action against AVEFA in % [11] [%] | Post-emergence action against ECHCG in % [12] [%] | Pre-emergence action against MATIN in % [13] [%] | Pre-emergence herbicidal action against LOLRI in % [14] [%] | Pre-emergence action against VIOTR in % [15] [%] | Pre-emergence action against VERPE in % [16] [%]
1 | CC#Cc1cc(C)c(C2=C(OC(=O)C(C)C)C3(CCC(COCC)C3)NC2=O)c(F)c1 (stereo not shown) [Example P-56] | 100 | 100 | 80 | 100 | 100 | 80 | 100 | 100 | 100 | 100 | 90 | 100 | 80 | 100 | 100 | 
2 | CC#Cc1cc(C)c(C2=C(O)C3(CCC(COCCC)C3)NC2=O)c(OC)c1 (stereo not shown) [Example I-59] | 100 | 100 | 100 | 100 | 90 |  | 100 | 100 | 100 | 100 | 90 | 100 | 80 | 100 | 100 | 
3 | CC#Cc1cc(C)c(C2=C(OC(=O)C(C)C)C3(CCC(COCC)C3)NC2=O)c(OC)c1 (stereo not shown) [Example P-50] | 90 | 100 | 100 | 100 | 100 | 100 | 100 | 100 | 100 | 100 | 90 | 100 |  | 100 | 100 | 80
4 | C#CCOCC1CCC2(C1)NC(=O)C(c1c(F)cc(C#CC)cc1OC)=C2O (stereo not shown) [Example I-75] | 90 | 90 | 80 | 100 | 90 | 100 | 90 | 100 | 90 | 100 | 90 | 100 | 90 | 100 |  | 
